The values that follow come from patent publication US20080287299A1, “Use of Imidazole and/or Triazole Derivatives for Combating Plant Pests; as Well as Method for Controlling Diseases/Insects/Mites/Nematodes and Weeds, Particularly Foliar and/or Soil Diseases” (priority 2005, published 2008).

Common to all, as to format: in vivo
Experiment [1] deals with Phakopsora pachyrhizi. As to the kind of experiment: Field evaluation of fungicides for control of soybean asian rust, Rondonópolis, MT, Brazil. The method, then: Results of the 2nd step with defined crops (Evaluation of efficiency of fungicides for controlling soybean asian rust caused by Phakopsora pachyrhizi in the State of Mato Grosso, Brazil)
Several fungicides were evaluated in the control of soybean asian rust (Table 1A). The experiment was effected in Rondonópolis, MT, Brazil, harvest 2005/06, in a commercial area with soybean cultivar. The experiment consisted of 13 treatments (Table 1A).
The experimental outlining was random, in blocks, with 13 treatments and 4 repetitions. Each plot consisted of 6 lines of 6 m, spaced 0.45 m.
The culture traits were suited to the good development of the soybean crop, uniformly applied in the whole experiment.
The spraying was effected in stadiums R3 and R5.1, with coast CO2 sprayer provided with a JA-02-type beak, under a pressure of 0.31 MPa (45 psi), using 110 L of broth per ha. At the first application, the plants were presenting the beginning of rust symptoms at their foliar areas.
The rust was evaluated by analysing the percentage of foliar area affected by the disease, according to Godoy et al., in the plants of the three central lines. Evaluationa related to soybean injury and severity were effected in 14 and 21 days after the first application (DDA), by means of visual observation of the leaves of the plot plants.

Experiment [2] has as its system Phakopsora pachyrhizi. Description: Greenhouse soybean rust test, plants at V6 stage, evaluated every 5 days. As to conditions: for SEVERITY OF RUST (% IFA) 5 DAT / SEVERITY OF RUST (% IFA) 10 DAT / SEVERITY OF RUST (% IFA) 15 DAT / SEVERITY OF RUST (% IFA) 20 DAT: soybean; for effective in controlling soybean rust: from 50 grams of active ingredient per hectare. The text has this:
Recent tests carried out in greenhouses the laboratory of FMC Quimica do Brasil Ltda. in Uberaba, MG, Brazil, show the highly fungicidal effect of said specific imidazole and/or triazole derivatives in combating diseases of plants, particularly against the attack by the fungus Phakopsora pachyrhizi on soybeans, as described hereinafter. […]
(§1) Equipment: a manual sprayer commonly used in agriculture with 2-liter capacity.
Dosages: 50 to 500 grams per hectare of the active compound Fluconazole per liter diluted in water.
Evaluations of the Effectiveness of the Product: The evaluations were made every 5 days after application of the product, in a total of 4 evaluations. As an evaluation parameter one utilized the severity of the disease (percentage of foliar area attacked by rust) according to the diagrammatic scale of the EMBRAPA (FIG. 1). […]
Dosages: 50 to 500 grams per hectare of the active compound Itraconazole per liter diluted in water.

In experiment [3] the test system is Phakopsora pachyrhizi. As to the kind of experiment: Greenhouse soybean rust test, plants at V5 stage, evaluated every 7 days. As to conditions: for SEVERITY OF RUST (% IFA) 7 DAT / SEVERITY OF RUST (% IFA) 14 DAT / SEVERITY OF RUST (% IFA) 21 DAT / SEVERITY OF RUST (% IFA) 28 DAT: soybean.
Text: Recent tests carried out in greenhouses the laboratory of FMC Quimica do Brasil Ltda. in Uberaba, MG, Brazil, show the highly fungicidal effect of said specific imidazole and/or triazole derivatives in combating diseases of plants, particularly against the attack by the fungus Phakopsora pachyrhizi on soybeans, as described hereinafter.
Experimental Outline Experimental Outline: entirely made with five repetitions, two plants per repetition, totaling 10 plants.
a) Preventive Mode: 30 days after plantation of the soybeans in plastic 2-liter pots and with corresponding volumes of soil, the soybean plants were at the V5 stage with six expanded folioles. At this moment, the compounds were sprayed and then, 48 hours afterwards, inoculation of the rust was effected. To effect the inoculation, one prepared a suspension of Phakopsora uredospores at the concentration of 2×10^4 spores/milliliters.
b) Healing mode: 30 days after plantation of the soybeans in 2-liter plastic pots and with a corresponding volume of soil, the soybean plants were at the V5 stage with six expanded folioles. At this moment, one effected the inoculation of the rust and then, 48 hours afterwards, the compounds were sprayed. To effect the inoculation, one prepared a suspension of Phakopsora uredospores at the concentration of 2×10^4 spores/milliliters.
as §1
Dosages: 50 to 300 grams per hectare of the active compound Itraconazole per liter diluted in water.
Evaluations of the Effectiveness of the Product: The evaluations were made every 7 days after application of the product, in a total of 4 evaluations. As an evaluation parameter one utilized the severity of the disease (percentage of foliar area attacked by rust) according to FIG. 1).
Dosages: 50 to 300 grams per hectare of the active compound Voriconazole per liter diluted in water.

`OC(Cn1cncn1)(Cn1cncn1)c1ccc(F)cc1F` [Fluconazole, alpha-(2,4-difluorophenyl)-alpha-(1H-1,2,4-trizole-1-ylmethyl)-1H-1,2,4-trizole-1-ethanol]: the “Severity - affected foliar area (%) 14 DAA” value stood at 0.6% in experiment [1] (Dose 500 P.C. mL ha^−1, 14 days after the first application); 0.5% in experiment [1] (Dose 750 P.C. mL ha^−1, 14 days after the first application); 0.4% in experiment [1] (Dose 1000 P.C. mL ha^−1, 14 days after the first application). Further, the “Severity - affected foliar area (%) 21 DAA” value in experiment [1] (Dose 500 P.C. mL ha^−1, 21 days after the first application) came to 4.0%; in experiment [1] (Dose 750 P.C. mL ha^−1, 21 days after the first application) it was 2.0%; in experiment [1] (Dose 1000 P.C. mL ha^−1, 21 days after the first application), 1.5%. The “SEVERITY OF RUST (% IFA) 5 DAT” value came out at 5 % IFA in experiment [2] (Table 2: 50 g ac/ha); 5 % IFA in experiment [2] (Table 2: 100 g ac/ha); 4 % IFA in experiment [2] (Table 2: 150 g ac/ha); 3 % IFA in experiment [2] (Table 2: 250 g ac/ha); 0 % IFA in experiment [2] (Table 2: 500 g ac/ha). Besides, the “SEVERITY OF RUST (% IFA) 10 DAT” value amounted to 10 % IFA in experiment [2] (Table 2: 50 g ac/ha); 7 % IFA in experiment [2] (Table 2: 100 g ac/ha); 6 % IFA in experiment [2] (Table 2: 150 g ac/ha); 7 % IFA in experiment [2] (Table 2: 250 g ac/ha); 0 % IFA in experiment [2] (Table 2: 500 g ac/ha). For the same compound, the “SEVERITY OF RUST (% IFA) 15 DAT” value is 12 % IFA in experiment [2] (Table 2: 50 g ac/ha); 10 % IFA in experiment [2] (Table 2: 100 g ac/ha); 9 % IFA in experiment [2] (Table 2: 150 g ac/ha); 11 % IFA in experiment [2] (Table 2: 250 g ac/ha); 2 % IFA in experiment [2] (Table 2: 500 g ac/ha). In addition, the “SEVERITY OF RUST (% IFA) 20 DAT” value is recorded as 12 % IFA in experiment [2] (Table 2: 50 g ac/ha); 11 % IFA in experiment [2] (Table 2: 100 g ac/ha); 10 % IFA in experiment [2] (Table 2: 150 g ac/ha); 10 % IFA in experiment [2] (Table 2: 250 g ac/ha); 4 % IFA in experiment [2] (Table 2: 500 g ac/ha). The “effective in controlling soybean rust” value in experiment [2] is “effective in controlling soybean rust”.

Regarding `CCC(C)n1ncn(-c2ccc(N3CCN(c4ccc(OC[C@H]5CO[C@](Cn6cncn6)(c6ccc(Cl)cc6Cl)O5)cc4)CC3)cc2)c1=O` (mixture of isomers) [Itraconazole, 4-[4-[4-[4-[[2-(2,4-dichlorophenyl)-2-(1H-1,2,4-triazol-1-ylmethyl)-1,3-dioxolan-4-yl]methoxy]phenyl]-1-pipera-zinyl]phenyl]-2,4-dihydro-2-(1-methylpropyl) 3H-1,2,4-triazol-3-one], the “SEVERITY OF RUST (% IFA) 5 DAT” value in experiment [2] (Table 3: 50 g ac/ha) was 6 % IFA; in experiment [2] (Table 3: 100 g ac/ha), 5 % IFA; in experiment [2] (Table 3: 150 g ac/ha) it was 5 % IFA; in experiment [2] (Table 3: 250 g ac/ha), 3 % IFA; in experiment [2] (Table 3: 500 g ac/ha), 0 % IFA. Further, the “SEVERITY OF RUST (% IFA) 10 DAT” value in experiment [2] (Table 3: 50 g ac/ha) is on record as 12 % IFA; in experiment [2] (Table 3: 100 g ac/ha) it was 13 % IFA; in experiment [2] (Table 3: 150 g ac/ha), 13 % IFA; in experiment [2] (Table 3: 250 g ac/ha) it was 14 % IFA; in experiment [2] (Table 3: 500 g ac/ha) it was 10 % IFA. Besides, the “SEVERITY OF RUST (% IFA) 15 DAT” value in experiment [2] (Table 3: 50 g ac/ha) was found to be 11 % IFA; in experiment [2] (Table 3: 100 g ac/ha) it was 10 % IFA; in experiment [2] (Table 3: 150 g ac/ha) it was 10 % IFA; in experiment [2] (Table 3: 250 g ac/ha), 10 % IFA; in experiment [2] (Table 3: 500 g ac/ha), 0 % IFA. Also, the “effective in controlling soybean rust” value in experiment [2] is on record as “effective in controlling soybean rust”.

Consider `C[C@@H](c1ncncc1F)[C@](O)(Cn1cncn1)c1ccc(F)cc1F` (relative stereo) [Voriconazole, alpha-(2,4-difluorophenyll)-5-fluor-beta-methyl-alpha-(1H-1,2,4-triazol-1-yllmethyl)-(R—(R*,S*))-4-pirimidinetanole], for which the “SEVERITY OF RUST (% IFA) 7 DAT” value in experiment [3] (Table 5: 50 g ac/ha) turned out to be 8 % IFA; in experiment [3] (Table 5: 100 g ac/ha) it was 8 % IFA; in experiment [3] (Table 5: 150 g ac/ha) it was 8 % IFA; in experiment [3] (Table 5: 200 g ac/ha), 4 % IFA; in experiment [3] (Table 5: 300 g ac/ha) it was 2 % IFA. Further, the “SEVERITY OF RUST (% IFA) 14 DAT” value came out at 10 % IFA in experiment [3] (Table 5: 50 g ac/ha); 8 % IFA in experiment [3] (Table 5: 100 g ac/ha); 8 % IFA in experiment [3] (Table 5: 150 g ac/ha); 7 % IFA in experiment [3] (Table 5: 200 g ac/ha); 0 % IFA in experiment [3] (Table 5: 300 g ac/ha). Further, the “SEVERITY OF RUST (% IFA) 21 DAT” value came to 10 % IFA in experiment [3] (Table 5: 50 g ac/ha); 11 % IFA in experiment [3] (Table 5: 100 g ac/ha); 10 % IFA in experiment [3] (Table 5: 150 g ac/ha); 11 % IFA in experiment [3] (Table 5: 200 g ac/ha); 1 % IFA in experiment [3] (Table 5: 300 g ac/ha). The “SEVERITY OF RUST (% IFA) 28 DAT” value was determined as 13 % IFA in experiment [3] (Table 5: 50 g ac/ha); 18 % IFA in experiment [3] (Table 5: 100 g ac/ha); 18 % IFA in experiment [3] (Table 5: 150 g ac/ha); 11 % IFA in experiment [3] (Table 5: 200 g ac/ha); 5 % IFA in experiment [3] (Table 5: 300 g ac/ha). Besides, the “effective in controlling soybean rust” value in experiment [3] (from 50 grams of active ingredient per hectare) is “effective in controlling soybean rust”.
